# Data published in ChEMBL document CHEMBL3792312, “Synthesis and docking studies of pyrazine-thiazolidinone hybrid scaffold targeting dormant tuberculosis” (Bioorg Med Chem Lett, 2016).
# What was measured:
# [1] = tested on: Mycobacterium tuberculosis; experiment: Antitubercular activity against dormant Mycobacterium tuberculosis H37Ra at 30 ug after 12 days by XTT-Menadione assay; type: functional
# [2] = tested on: Mycobacterium tuberculosis; experiment: Antitubercular activity against dormant Mycobacterium tuberculosis H37Ra at 10 ug after 12 days by XTT-Menadione assay; type: functional
# [3] = tested on: Mycobacterium tuberculosis; experiment: Antitubercular activity against dormant Mycobacterium tuberculosis H37Ra at 3 ug after 12 days by XTT-Menadione assay; type: functional
# [4] = tested on: Mycolicibacterium smegmatis; experiment: Antitubercular activity against dormant Mycobacterium smegmatis MC2 155 at 30 ug after 12 days by XTT-Menadione assay; type: functional, str. MC2 155
# [5] = tested on: Mycolicibacterium smegmatis; experiment: Antitubercular activity against dormant Mycobacterium smegmatis MC2 155 at 10 ug after 12 days by XTT-Menadione assay; type: functional, str. MC2 155
# [6] = tested on: Mycolicibacterium smegmatis; experiment: Antitubercular activity against dormant Mycobacterium smegmatis MC2 155 at 3 ug after 12 days by XTT-Menadione assay; type: functional, str. MC2 155
# Escherichia coli [7] = experiment: Antibacterial activity against Escherichia coli at 30 ug after 8 hrs; type: functional
# Escherichia coli [8] = experiment: Antibacterial activity against Escherichia coli at 10 ug after 8 hrs; type: functional
# Escherichia coli [9] = experiment: Antibacterial activity against Escherichia coli at 3 ug after 8 hrs; type: functional
# Pseudomonas fluorescens [10] = experiment: Antibacterial activity against Pseudomonas fluorescens at 30 ug after 8 hrs; type: functional
# Pseudomonas fluorescens [11] = experiment: Antibacterial activity against Pseudomonas fluorescens at 10 ug after 8 hrs; type: functional
# Pseudomonas fluorescens [12] = experiment: Antibacterial activity against Pseudomonas fluorescens at 3 ug after 8 hrs; type: functional
# Staphylococcus aureus [13] = experiment: Antibacterial activity against Staphylococcus aureus at 30 ug after 12 hrs; type: functional
# Staphylococcus aureus [14] = experiment: Antibacterial activity against Staphylococcus aureus at 10 ug after 12 hrs; type: functional
# Staphylococcus aureus [15] = experiment: Antibacterial activity against Staphylococcus aureus at 3 ug after 12 hrs; type: functional
# Bacillus subtilis [16] = experiment: Antibacterial activity against Bacillus subtilis at 30 ug after 12 hrs; type: functional
# Bacillus subtilis [17] = experiment: Antibacterial activity against Bacillus subtilis at 10 ug after 12 hrs; type: functional
# Bacillus subtilis [18] = experiment: Antibacterial activity against Bacillus subtilis at 3 ug after 12 hrs; type: functional
# [19] = tested on: Mycobacterium tuberculosis; experiment: Antitubercular activity against dormant Mycobacterium tuberculosis H37Ra after 12 days by XTT-Menadione assay; type: functional, organism-based; conditions: 288 h
SMILES,inhibition (INH) [1],inhibition (INH) [2],inhibition (INH) [3],inhibition (INH) [4],inhibition (INH) [5],inhibition (INH) [6],inhibition (INH) (Escherichia coli [7]),inhibition (INH) (Escherichia coli [8]),inhibition (INH) (Escherichia coli [9]),inhibition (INH) (Pseudomonas fluorescens [10]),inhibition (INH) (Pseudomonas fluorescens [11]),inhibition (INH) (Pseudomonas fluorescens [12]),inhibition (INH) (Staphylococcus aureus [13]),inhibition (INH) (Staphylococcus aureus [14]),inhibition (INH) (Staphylococcus aureus [15]),inhibition (INH) (Bacillus subtilis [16]),inhibition (INH) (Bacillus subtilis [17]),inhibition (INH) (Bacillus subtilis [18]),MIC [19]
Nc1nccnc1C(=O)NN1C(=O)CS[C@H]1c1ccc([N+](=O)[O-])cc1,49.69%,43%,39.54%,-10.9967%,-28.273%,34.28%,37.49%,57.79%,42.143%,-20.68%,24.31%,37.2%,-21.02%,-46.62%,16.74%,-19.53%,-1.56%,0.25%,–
Nc1nccnc1C(=O)NN1C(=O)CSC1c1ccc(Cl)cc1Cl (stereo not given),63.39%,68.91%,64.5%,33.52%,55.96%,42.73%,-146.6%,38.17%,-35.51%,7.35%,-6.12%,14.82%,-52.82%,-26.32%,-35.91%,3.8%,-11.3%,-13.09%,–
Nc1nccnc1C(=O)NN1C(=O)CSC1c1cccc([N+](=O)[O-])c1 (stereo not given),64.96%,62.55%,63.89%,50.45%,-86.9278%,36.91%,34.42%,5.212%,-91.9%,47.95%,25.83%,4.173%,-37.97%,-44.93%,5.486%,17.93%,-12.6%,-23.1%,–
CN(C)c1ccc(C2SCC(=O)N2NC(=O)c2nccnc2N)cc1 (stereo not given),69.04%,66.92%,63.27%,-93.9118%,38.8231%,34.15%,40.76%,62.03%,49.71%,34.38%,22.64%,35.05%,56.34%,9.5%,31.97%,0.43%,9.92%,3.21%,–
Nc1nccnc1C(=O)NN1C(=O)CSC1c1ccc(F)cc1 (stereo not given),71.96%,67.84%,68.04%,37.72%,-3.707%,28.7381%,50.12%,45%,41.47%,42.8%,40.76%,27.83%,8.99%,-50.49%,-14.5%,3.63%,21.54%,14.29%,–
Nc1nccnc1C(=O)NN1C(=O)CSC1c1ccc(Cl)cc1 (stereo not given),72.85%,70.78%,62.36%,52.67%,64.17%,30.65%,38.45%,-65.92%,-8.913%,-17.98%,13.99%,21.22%,-34.8%,14.12%,52.81%,2.22%,-4.06%,-14.42%,–
Nc1nccnc1C(=O)NN1C(=O)CSC1c1ccc(O)cc1 (stereo not given),70.73%,69.84%,65.54%,13.22%,27.68%,36.11%,15.24%,14.06%,56.462%,43.72%,16.61%,30.55%,43.79%,40.89%,25.87%,4.31%,16.8%,13.88%,–
Cc1cnc(C(=O)NN2C(=O)CSC2c2ccc(O)cc2)cn1 (stereo not given),75.49%,70.55%,64.79%,7.295%,15.78%,30.34%,32.37%,-32.72%,-51.23%,-20.73%,29.13%,29.07%,-4.04%,6.02%,-7.09%,16.21%,19.81%,-6.172%,–
COc1ccc(C2SCC(=O)N2NC(=O)c2cnc(C)cn2)cc1OC (stereo not given),73.51%,72.12%,68.91%,9.358%,46.67%,8.925%,-11.14%,-59.8%,-46.22%,-5.41%,28.51%,-2.69%,2.4%,-14.6%,48.7%,14.25%,18.53%,13.25%,–
Cc1cnc(C(=O)NN2C(=O)CSC2c2ccccc2)cn1 (stereo not given),68.38%,66.69%,55.04%,61.3106%,24.96%,34.46%,42.85%,56.76%,60.45%,35.1%,33.57%,19.67%,39.81%,41.07%,-39.23%,-9.36%,16.03%,17.71%,–
COc1ccc(C2SCC(=O)N2NC(=O)c2cnc(C)cn2)cc1 (stereo not given),71.41%,65.76%,63.11%,27.97%,11.4077%,46.39%,17.95%,-9.96%,9.978%,29.02%,19.06%,-0.838%,-29.6%,-29.27%,-9.85%,18.72%,-8.08%,19.31%,–
Cc1cnc(C(=O)NN2C(=O)CSC2c2ccc(Cl)cc2)cn1 (stereo not given),62.27%,61.88%,60.85%,-19.6759%,24.29%,-84.5144%,40.4%,64.64%,63.05%,32.81%,21.51%,27.78%,16.66%,-10.67%,-0.64%,-36.6%,-5.89%,-0.29%,–
C[C@H]1COC2(CCN(c3nc(=O)c4cc(C(F)(F)F)cc([N+](=O)[O-])c4s3)CC2)O1 [BTZ-043],–,–,–,–,–,–,–,–,–,–,–,–,–,–,–,–,–,–,3 ng/mL
NNC(=O)c1ccncc1 [ISONIAZID],–,–,–,–,–,–,–,–,–,–,–,–,–,–,–,–,–,–,75 ng/mL
NC(=O)c1cnccn1 [PYRAZINAMIDE],–,–,–,–,–,–,–,–,–,–,–,–,–,–,–,–,–,–,> 10000 ng/mL
CO[C@H]1/C=C/O[C@@]2(C)Oc3c(C)c(O)c4c(O)c(c(/C=N/N5CCN(C)CC5)c(O)c4c3C2=O)NC(=O)/C(C)=C\C=C\[C@H](C)[C@H](O)[C@@H](C)[C@@H](O)[C@@H](C)[C@H](OC(C)=O)[C@@H]1C [RIFAMPIN],–,–,–,–,–,–,–,–,–,–,–,–,–,–,–,–,–,–,2.1 ng/mL
